Results: patent publication US20240270762A1, “PENICILLIN-BINDING PROTEIN INHIBITORS” (priority 2021, published 2024)
In brackets after ≈: the same amount, converted by molar mass. Read-outs that look alike come from different tables or passages of the source.

How the values were obtained:
N. gonorrhoeae WHO K = test: Liquid broth MIC in Fastidious broth; conditions: Neisseria gonorrhoeae
N. gonorrhoeae WHO Z = test: Liquid broth MIC in Fastidious broth; conditions: Neisseria gonorrhoeae
N. gonorrhoeae WHO M = test: Liquid broth MIC in Fastidious broth; conditions: Neisseria gonorrhoeae
N. gonorrhoeae CDC-0197 = test: Liquid broth MIC in Fastidious broth; conditions: Neisseria gonorrhoeae
Description: ATCC 49226, FA1090, MS11, WHO G, WHO L, and WHO M produce wild type or wild-type like PBP2. WHO K, WHO X, WHO Z, WHO Q, and CDC-0197 produce mosaic PBP2. Liquid broth-based assays were used for antibacterial testing of PBP inhibitors in Neisseria gonorrhoeae. Briefly, cryo-preserved bacterial cultures of clinical strains were streaked for isolation on Chocolate Agar (72 g/L (2×) GC Agar Base (BD #228950) and 2% (2×) Hemoglobin was autoclaved at 121° C. for 20 minutes to sterilize. Once cooled to ˜50° C. the 2×GC Agar Base and 2× Hemoglobin solutions are combined and 1% IsoVitaleX Enrichment (BD #211876) was added to the solution). Strains were incubated at 36° C. and 5% CO2 to allow growth of colonies, 24 hours before inoculum preparation. 2-fold serial dilutions of test compounds were conducted in a 96 well plate with a final volume of 75 μL per well at 2-fold the final desired concentration in Fastidious broth (Remel #R07664). For preparation of assay inoculum, a direct suspension was prepared by aseptically swabbing 10-15 colonies from agar plates into culture tubes containing 2 mL of fresh sterile saline. After the dilution plates were set up, direct suspensions were then diluted in a cuvette containing sterile saline and the optical density was measured at 600 nm. Inocula were diluted such that 75 μL of this culture in Fastidious broth results in a starting bacterial concentration of 5×10^5 CFU/mL when added to the dilution plates. The plates were incubated for ˜24 hours at 36° C. and 5% CO2.

N. gonorrhoeae WHO L = test: Liquid broth MIC in Fastidious broth; conditions: Neisseria gonorrhoeae
N. gonorrhoeae FA1090 = test: Liquid broth MIC in Fastidious broth; conditions: Neisseria gonorrhoeae
[1] = biological target: T1, PBP3 from Pseudomonas aeruginosa (PAO1) (Pseudomonas aeruginosa, UniProt G3XD46); test: Bocillin-FL fluorescence polarization competition binding, P. aeruginosa PBP3; conditions: Binding affinity to P. aeruginosa PBP3; fluorescence polarization competition binding assay using Bocillin-FL; read-out: P. aeruginosa PBP3 Potency
T1 construct: made in house
In short: (§1)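 Purified PBPs pre-incubated with inhibitor (E. coli PBP3 1.5 μM, 30 min; P. aeruginosa PBP3 0.75 μM, A. baumannii PBP1a 1 μM and PBP3 0.2 μM, 15 min), then Bocillin-FL 0.1 μM (0.05 μM for PBP1a) added; FP read up to 60 min. EC50 = concentration halving bound Bocillin-FL.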

[2] = biological target: T2, PBP3 from Escherichia coli (K-12) (Escherichia coli, UniProt P0AD68); test: Bocillin-FL fluorescence polarization competition binding, E. coli PBP3
T2 construct: made in house
In short: as §1

N. gonorrhoeae WHO X = test: Liquid broth MIC in Fastidious broth; conditions: Neisseria gonorrhoeae
P. aeruginosa ATCC 35151 = test: microbe, parasite or virus in culture; format: cell-based; conditions: Pseudomonas aeruginosa, ATCC35151, read-out: Minimum inhibitory concentration, P. aeruginosa ATCC 35151
A. baumannii CDC-0083 = test: microbe, parasite or virus in culture; format: cell-based; conditions: Acinetobacter baumannii, CDC0083, read-out: MIC, A. baumannii CDC-0083
P. aeruginosa CDC-0090 = test: microbe, parasite or virus in culture; format: cell-based; conditions: Pseudomonas aeruginosa, CDC0090, read-out: Minimum inhibitory concentration, P. aeruginosa CDC-0090
[3] = system: B. humptydooensis ATCC BAA-2767; test: microbe, parasite or virus in culture; format: cell-based; conditions: Burkholderia humptydooensis, ATCCBAA2767, read-out: Minimum inhibitory concentration (MIC), B. humptydooensis ATCC BAA-2767
A. baumannii ATCC 19606 = test: microbe, parasite or virus in culture; format: cell-based; conditions: Acinetobacter baumannii, ATCC19606, read-out: MIC, A. baumannii ATCC 19606
[4] = system: P. aeruginosa (ΔmexAB-oprM); test: Broth microdilution MIC in iron-depleted CAMHB (IDM); format: cell-based; conditions: Pseudomonas aeruginosa; iron-depleted CAMHB (IDM); […]; read-out: Minimum inhibitory concentration, P. aeruginosa ΔmexAB-oprM
[5] = read-out: Minimum Inhibitory Concentration (MIC), N. gonorrhoeae WHO K
[6] = read-out: Minimum Inhibitory Concentration (MIC), N. gonorrhoeae WHO Z
[7] = read-out: Minimum Inhibitory Concentration (MIC), N. gonorrhoeae WHO M
[8] = CDC0197, read-out: Minimum Inhibitory Concentration (MIC), N. gonorrhoeae CDC-0197
[9] = read-out: Minimum Inhibitory Concentration (MIC), N. gonorrhoeae WHO L
[10] = FA1090, read-out: Minimum Inhibitory Concentration (MIC), N. gonorrhoeae FA 1090
[11] = read-out: Minimum Inhibitory Concentration (MIC), N. gonorrhoeae WHO X
[12] = read-out: Minimum Inhibitory Concentration, WHO K
[13] = read-out: Minimum Inhibitory Concentration, WHO Z
[14] = read-out: Minimum Inhibitory Concentration, WHO M
[15] = CDC0197, read-out: Minimum Inhibitory Concentration, CDC-0197
[16] = read-out: Minimum Inhibitory Concentration, WHO L
[17] = FA1090, read-out: Minimum Inhibitory Concentration, FA 1090
[18] = read-out: Minimum Inhibitory Concentration, WHO X

T2 sequence (P0AD68 1-577): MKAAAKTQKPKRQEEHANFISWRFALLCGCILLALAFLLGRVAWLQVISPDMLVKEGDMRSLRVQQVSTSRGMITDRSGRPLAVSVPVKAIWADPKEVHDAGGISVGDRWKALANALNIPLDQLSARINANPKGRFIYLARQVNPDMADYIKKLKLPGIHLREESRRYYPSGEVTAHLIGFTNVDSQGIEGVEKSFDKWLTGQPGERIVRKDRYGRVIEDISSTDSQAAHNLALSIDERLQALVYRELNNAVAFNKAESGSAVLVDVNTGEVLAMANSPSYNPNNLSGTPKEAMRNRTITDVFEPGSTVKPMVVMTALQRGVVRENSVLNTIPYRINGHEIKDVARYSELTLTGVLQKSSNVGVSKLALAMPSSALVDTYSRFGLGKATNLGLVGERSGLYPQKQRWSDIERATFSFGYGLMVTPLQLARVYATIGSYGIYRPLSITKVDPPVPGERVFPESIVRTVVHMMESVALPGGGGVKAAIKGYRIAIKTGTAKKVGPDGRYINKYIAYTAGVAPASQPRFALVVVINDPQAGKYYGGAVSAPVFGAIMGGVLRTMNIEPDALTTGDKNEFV
T1 sequence (G3XD46 whole entry): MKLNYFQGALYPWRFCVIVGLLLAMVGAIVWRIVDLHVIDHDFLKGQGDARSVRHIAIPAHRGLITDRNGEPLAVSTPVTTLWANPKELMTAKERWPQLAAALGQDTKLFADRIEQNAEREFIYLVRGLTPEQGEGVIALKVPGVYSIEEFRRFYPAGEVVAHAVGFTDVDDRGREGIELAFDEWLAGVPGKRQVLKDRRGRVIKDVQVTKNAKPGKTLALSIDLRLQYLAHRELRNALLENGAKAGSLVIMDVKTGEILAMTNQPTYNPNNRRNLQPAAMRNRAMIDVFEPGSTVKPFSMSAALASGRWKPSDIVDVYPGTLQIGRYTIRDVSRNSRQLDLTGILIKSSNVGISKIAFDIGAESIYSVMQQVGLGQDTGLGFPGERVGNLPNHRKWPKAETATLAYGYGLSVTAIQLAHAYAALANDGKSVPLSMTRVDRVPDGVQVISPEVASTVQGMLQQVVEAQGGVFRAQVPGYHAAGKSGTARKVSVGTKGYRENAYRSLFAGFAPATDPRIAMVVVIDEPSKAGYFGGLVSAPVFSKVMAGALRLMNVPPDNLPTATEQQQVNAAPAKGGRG

Row | Structure (SMILES) | MIC (N. gonorrhoeae WHO K; [5]) | MIC (N. gonorrhoeae WHO Z; [6]) | MIC (N. gonorrhoeae WHO M; [7]) | MIC (N. gonorrhoeae CDC-0197; [8]) | MIC (N. gonorrhoeae WHO L; [9]) | MIC (N. gonorrhoeae FA1090; [10]) | IC50 [1] | EC50 [2] | MIC (N. gonorrhoeae WHO X; [11]) | MIC (P. aeruginosa ATCC 35151) | MIC (A. baumannii CDC-0083) | MIC (P. aeruginosa CDC-0090) | MIC (A. baumannii ATCC 19606) | MIC [4] | further results
1 | O=C(O)c1cccc2c1OB(O)[C@@H](NC(=O)[C@@H](NC(=O)c1cnc3n(c1=O)CCS3)c1ccc(P(=O)(O)O)cc1)C2 (single isomer, unassigned) [Example 196] | 16 to 32 µg/mL (≈ 26.7 to 53.3 µM) | 16 to 32 µg/mL (≈ 26.7 to 53.3 µM) | 16 to 32 µg/mL (≈ 26.7 to 53.3 µM) | 16 to 32 µg/mL (≈ 26.7 to 53.3 µM) | 16 to 32 µg/mL (≈ 26.7 to 53.3 µM) | 4 to 8 µg/mL (≈ 6.66 to 13.3 µM) | 50 to 250 µM | > 250 µM | 16 to 32 µg/mL (≈ 26.7 to 53.3 µM) |  |  |  |  |  | 
2 | O=C(O)c1cccc2c1OB(O)[C@@H](NC(=O)[C@H](NC(=O)c1cnc3n(c1=O)CCS3)c1ccc(P(=O)(O)O)cc1)C2 (single isomer, unassigned) [Example 197] | 16 to 32 µg/mL (≈ 26.7 to 53.3 µM) | 16 to 32 µg/mL (≈ 26.7 to 53.3 µM) | 4 to 8 µg/mL (≈ 6.66 to 13.3 µM) | 16 to 32 µg/mL (≈ 26.7 to 53.3 µM) | 16 to 32 µg/mL (≈ 26.7 to 53.3 µM) | 1 to 2 µg/mL (≈ 1.67 to 3.33 µM) | < 10 µM | 10 to 50 µM | 16 to 32 µg/mL (≈ 26.7 to 53.3 µM) |  |  |  |  |  | 
3 | CCN1CCN(C(=O)NC(C(=O)N[C@H]2Cc3cccc(C(=O)O)c3OB2O)c2ccc(P(=O)(O)O)c(F)c2O)C(=O)C1=O (stereo partly drawn) [Example 198, (3R)-3-(2-(4-ethyl-2,3-dioxopiperazine-1-carboxamido)-2-(3-fluoro-2-hydroxy-4-phosphonophenyl)acetamido)-2-hydroxy-3,4-dihydro-2H-benzo[e][1,2]oxaborinine-8-carboxylic acid] | 4 to 8 µg/mL (≈ 6.43 to 12.9 µM) | 1 to 2 µg/mL (≈ 1.61 to 3.21 µM) | < 1 µg/mL | < 1 µg/mL | 1 to 2 µg/mL (≈ 1.61 to 3.21 µM) | < 1 µg/mL | 10 to 50 µM | 10 to 50 µM | 4 to 8 µg/mL (≈ 6.43 to 12.9 µM) |  |  |  |  |  | 
4 | O=C(NCCN1CCN(C(=O)NC(C(=O)N[C@H]2Cc3ccc(F)c(C(=O)O)c3OB2O)c2cc(F)c(O)c(O)c2Cl)C(=O)C1=O)c1ccccc1 (stereo partly drawn) [Example 207, (3R)-3-(2-(4-(2-benzamidoethyl)-2,3-dioxopiperazine-1-carboxamido)-2-(2-chloro-5-fluoro-3,4-dihydroxyphenyl)acetamido)-7-fluoro-2-hydroxy-3,4-dihydro-2H-benzo[e][1,2]oxaborinine-8-carboxylic acid] | > 64 µg/mL | 16 to 32 µg/mL (≈ 21.9 to 43.8 µM) | 16 to 32 µg/mL (≈ 21.9 to 43.8 µM) | 16 to 32 µg/mL (≈ 21.9 to 43.8 µM) | > 64 µg/mL | 4 to 8 µg/mL (≈ 5.48 to 11 µM) |  | < 10 µM | > 64 µg/mL | < 1 µg/mL | 2 to 4 µg/mL (≈ 2.74 to 5.48 µM) | < 1 µg/mL | 2 to 4 µg/mL (≈ 2.74 to 5.48 µM) | < 1 µg/mL | MIC [3]: < 1 µg/mL
5 | O=C(O)c1c(F)ccc2c1OB(O)[C@@H](NC(=O)[C@H](NC(=O)N1CCN(CCNC(=O)[C@@H]3CCCN3)C(=O)C1=O)c1cc(F)c(O)c(O)c1Cl)C2 [Example 229, (R)-3-((R)-2-(2-chloro-5-fluoro-3,4-dihydroxyphenyl)-2-(2,3-dioxo-4-(2-((S)-pyrrolidine-2-carboxamido)ethyl)piperazine-1-carboxamido)acetamido)-7-fluoro-2-hydroxy-3,4-dihydro-2H-benzo[e][1,2]oxaborinine-8-carboxylic acid] | 16 to 32 µg/mL (≈ 22.1 to 44.3 µM) | 16 to 32 µg/mL (≈ 22.1 to 44.3 µM) | 4 to 8 µg/mL (≈ 5.53 to 11.1 µM) | 16 to 32 µg/mL (≈ 22.1 to 44.3 µM) | > 64 µg/mL | 4 to 8 µg/mL (≈ 5.53 to 11.1 µM) | < 10 µM | 10 to 50 µM | > 64 µg/mL | < 1 µg/mL | < 1 µg/mL | 2 to 4 µg/mL (≈ 2.77 to 5.53 µM) | < 1 µg/mL | < 1 µg/mL | 
6 | O=C(CN1CCN(C(=O)NC(C(=O)N[C@H]2Cc3ccc(F)c(C(=O)O)c3OB2O)c2cc(F)c(O)c(O)c2Cl)C(=O)C1=O)NCc1ccc(O)cc1 (stereo partly drawn) [Example 236, (3R)-3-(2-(2-chloro-5-fluoro-3,4-dihydroxyphenyl)-2-(4-(2-((4-hydroxybenzyl)amino)-2-oxoethyl)-2,3-dioxopiperazine-1-carboxamido)acetamido)-7-fluoro-2-hydroxy-3,4-dihydro-2H-benzo[e][1,2]oxaborinine-8-carboxylic acid] |  |  |  |  |  |  | < 10 µM | < 10 µM |  |  | > 128 µg/mL |  | < 1 µg/mL |  | MIC [3]: 2 to 4 µg/mL (≈ 2.68 to 5.36 µM)
7 | O=C(NCCCN1CCN(C(=O)N[C@@H](C(=O)N[C@H]2Cc3ccc(F)c(C(=O)O)c3OB2O)c2cc(F)c(O)c(O)c2Cl)C1=O)c1ccccc1 [Example 253, (R)-3-((R)-2-(3-(3-benzamidopropyl)-2-oxoimidazolidine-1-carboxamido)-2-(2-chloro-5-fluoro-3,4-dihydroxyphenyl)acetamido)-7-fluoro-2-hydroxy-3,4-dihydro-2H-benzo[e][1,2]oxaborinine-8-carboxylic acid] |  |  |  |  |  |  | < 10 µM | < 10 µM |  | < 1 µg/mL | < 1 µg/mL | 2 to 4 µg/mL (≈ 2.79 to 5.59 µM) | < 1 µg/mL | < 1 µg/mL | MIC (N. gonorrhoeae WHO K; [12]): > 64 µg/mL; MIC (N. gonorrhoeae WHO Z; [13]): 16 to 32 µg/mL (≈ 22.4 to 44.7 µM); MIC (N. gonorrhoeae WHO M; [14]): 4 to 8 µg/mL (≈ 5.59 to 11.2 µM); MIC (N. gonorrhoeae CDC-0197; [15]): > 64 µg/mL; MIC (N. gonorrhoeae WHO L; [16]): > 64 µg/mL; MIC (N. gonorrhoeae FA1090; [17]): 1 to 2 µg/mL (≈ 1.4 to 2.79 µM); MIC (N. gonorrhoeae WHO X; [18]): > 64 µg/mL
8 | O=C(NCCS(=O)(=O)N1CCN(C(=O)NC(C(=O)N[C@H]2Cc3ccc(F)c(C(=O)O)c3OB2O)c2cc(F)c(O)c(O)c2Cl)C1=O)c1ccccc1 (stereo partly drawn) [Example 260, (3R)-3-(2-(3-((2-benzamidoethyl)sulfonyl)-2-oxoimidazolidine-1-carboxamido)-2-(2-chloro-5-fluoro-3,4-dihydroxyphenyl)acetamido)-7-fluoro-2-hydroxy-3,4-dihydro-2H-benzo[e][1,2]oxaborinine-8-carboxylic acid] |  |  |  |  |  |  | < 10 µM | < 10 µM |  | < 1 µg/mL | < 1 µg/mL | 2 to 4 µg/mL (≈ 2.61 to 5.22 µM) | < 1 µg/mL | < 1 µg/mL | MIC (N. gonorrhoeae WHO K; [12]): > 64 µg/mL; MIC (N. gonorrhoeae WHO Z; [13]): 16 to 32 µg/mL (≈ 20.9 to 41.8 µM); MIC (N. gonorrhoeae WHO M; [14]): 16 to 32 µg/mL (≈ 20.9 to 41.8 µM); MIC (N. gonorrhoeae CDC-0197; [15]): 16 to 32 µg/mL (≈ 20.9 to 41.8 µM); MIC (N. gonorrhoeae WHO L; [16]): > 64 µg/mL; MIC (N. gonorrhoeae FA1090; [17]): 4 to 8 µg/mL (≈ 5.22 to 10.4 µM); MIC (N. gonorrhoeae WHO X; [18]): > 64 µg/mL
